The text below walks through data of US10654816B2, “Compounds and compositions for treating conditions associated with NLRP activity” (NOVARTIS INFLAMMASOME RESEARCH, INC., priority 2017, dated 2020).

One assay relates to IL-1β production in PMA-differentiated THP-1 cells. The assay can be described thus: IL-1β production in PMA-differentiated THP-1 cells stimulated with gramicidin (hTHP-1 assay, HTRF readout; Procedures 1-3). In kind it is cell-based, human. To be noted: Homo sapiens, THP-1, hTHP-1 assay containing 2% fetal bovine serum; average; class symbols; read-out: hTHP-1 IC50 (Average IC50 of compounds in hTHP-1 assay). The procedure, abridged: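 PMA-differentiated (20 ng/ml, 16-18 h) THP-1 cells in RPMI with 2% FBS, 50,000 cells/well, preincubated 1 h with compound (final 0.0017-100 μM, 0.37% DMSO), then stimulated with 5 μM gramicidin for 2 h. IL-1β in cell-free supernatant measured by HTRF (620/668 nm).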
(Time-resolved FRET reads energy transfer from a long-lived donor to a nearby acceptor.)
`CCc1ccc2cnn(C)c2c1NC(=O)N=S(N)(=O)c1ncc(C(C)(C)O)s1` (single isomer, unassigned) [Example 328, (R) or (S)-N′-((6-ethyl-1-methyl-1H-indazol-7-yl)carbamoyl)-5-(2-hydroxypropan-2-yl)thiazole-2-sulfonimidamide]: the IC50 is 1000 to 5000 nM.
On the same count and under the same terms, the figure for `CC(C)c1nn(-c2ccccc2)c(C(C)C)c1NC(=O)N=S(N)(=O)c1cc(C(C)(C)O)cs1` (centres unmarked) [Example 284, N′-((3,5-diisopropyl-1-phenyl-1H-pyrazol-4-yl)carbamoyl)-4-(2-hydroxypropan-2-yl)thiophene-2-sulfonimidamide] is 5000 to 30000 nM.
The same measure, in the same setting: the figure for `CC(C)c1cc(C#N)cc(C(C)C)c1NC(=O)N=S(N)(=O)c1sc(C(C)(C)O)nc1CO` (single isomer, unassigned) [Example 192, (S)- or (R)-N′-((4-cyano-2,6-diisopropylphenyl)carbamoyl)-4-(hydroxymethyl)-2-(2-hydroxypropan-2-yl)thiazole-5-sulfonimidamide] is 200 to 1000 nM; for `CC(C)c1cc(F)cc(C(C)C)c1NC(=O)N=S(N)(=O)c1cc(Cl)c(Cl)s1` (centres unmarked) [Example 208, 4,5-Dichloro-N′-((4-fluoro-2,6-diisopropylphenyl)carbamoyl)thiophene-2-sulfonimidamide] it is 5000 to 30000 nM; for `CC(C)c1ccc(C#N)c(C(C)C)c1NC(=O)N=S(N)(=O)c1ccc(C(C)(C)O)s1` (centres unmarked) [Example 254, N′-((3-cyano-2,6-diisopropylphenyl)carbamoyl)-5-(2-hydroxypropan-2-yl)thiophene-2-sulfonimidamide] it is 1000 to 5000 nM.
The same measure, in the same setting: the figure for `CNCc1ccc(S(N)(=O)=NC(=O)Nc2c3c(cc4c2CCC4)CCC3)c(F)c1` (centres unmarked) [Example 287, 2-fluoro-N′-((1,2,3,5,6,7-hexahydro-s-indacen-4-yl)carbamoyl)-4-((methylamino)methyl)benzene-sulfonimidamide] is 1000 to 5000 nM; for `COCCN(C)Cc1ccc(S(N)(=O)=NC(=O)Nc2c3c(cc4c2CCC4)CCC3)cc1` (centres unmarked) [Example 232, N′-(1,2,3,5,6,7-hexahydro-s-indacen-4-ylcarbamoyl)-4-(((2-methoxyethyl)(methyl)amino)meth-yl)benzenesulfonimidamide] it is 1000 to 5000 nM.
On to `CC(C)c1cc(F)cc(C(C)C)c1NC(=O)N=S(N)(=O)c1cccnc1` (centres unmarked) [Example 215, N′-((4-fluoro-2,6-diisopropylphenyl)carbamoyl)pyridine-3-sulfonimidamide], for which the concentration for half-maximal inhibition (IC50) was in the range of 5000 to 30000 nM.
The same measure, in the same setting: next, `CN(C)S(=O)(=NC(=O)Nc1c2c(cc3c1CCC3)CCC2)c1cc(C(C)(C)O)cs1` (single isomer, unassigned) [Example 357, (R) or (S)-N′-((1,2,3,5,6,7-hexahydro-s-indacen-4-yl)carbamoyl)-4-(2-hydroxypropan-2-yl)-N,N-dimethylthiophene-2-sulfonimidamide]: 5000 to 30000 nM; `NCc1ccc(S(N)(=O)=NC(=O)Nc2c3c(cc4c2CCC4)CCC3)cc1` (single isomer, unassigned) [Example 411, (R) or (S)-4-(aminomethyl)-N′-((1,2,3,5,6,7-hexahydro-s-indacen-4-yl)carbamoyl)benzene-sulfonimidamide]: 1000 to 5000 nM; `CC(C)Cc1ccc(S(N)(=O)=NC(=O)Nc2c3c(cc4c2CCC4)CCC3)cn1` (single isomer, unassigned) [Example 416, (S) or (R)-N′-((1,2,3,5,6,7-hexahydro-s-indacen-4-yl)carbamoyl)-6-isobutylpyridine-3-sulfonimidamide]: 200 to 1000 nM.
As to `CC(C)(O)c1ncc(S(N)(=O)=NC(=O)Nc2c3c(cc4c2CC4)CC3)s1` (centres unmarked) [Example 226, 2-(2-Hydroxypropan-2-yl)-N′-(tricyclo[6.2.0.03,6]deca-1,3(6),7-trien-2-ylcarbamoyl)thiazole-5-sulfonimidamide], the IC50 fell in the range of 8 to 40 nM.
Turning to `Cc1nc(C(C)(C)O)ccc1S(N)(=O)=NC(=O)Nc1c2c(cc3c1CCC3)CCC2` (centres unmarked) [Example 264, N′-((1,2,3,5,6,7-hexahydro-s-indacen-4-yl)carbamoyl)-6-(2-hydroxypropan-2-yl)-2-methylpyridine-3-sulfonimidamide], the IC50 lay in the range of 1000 to 5000 nM.
On the same count and under the same terms, next, `CC(C)c1cc(OC(F)F)cc(C2CC2)c1NC(=O)N=S(N)(=O)c1ccc(C(C)(C)O)cc1F` (single isomer, unassigned) [Example 166, (S)- or (R)-N′-((2-cyclopropyl-4-(difluoromethoxy)-6-isopropylphoxyproyl)-2-fluoro-4-(2-hydroxypropan-2-yl)benzenesulfonimidamide]: 200 to 1000 nM.
On to `NS(=O)(=NC(=O)Nc1c2c(cc3c1CCC3)CCC2)c1ccc(CN2CCCC2)cc1` (centres unmarked) [Example 236, N′-(1,2,3,5,6,7-hexahydro-s-indacen-4-ylcarbamoyl)-4-(pyrrolidin-1-ylmethyl)benzenesulfonimidamide], for which the IC50 was in the range of 1000 to 5000 nM.
On to `Cc1oc(S(N)(=O)=NC(=O)Nc2c(C(C)C)cc(C#N)c(F)c2C(C)C)cc1C(C)(C)O` (centres unmarked) [Example 33, N′-(4-cyano-3-fluoro-2,6-diisopropylphenylcarbamoyl)-4-(2-hydroxypropan-2-yl)-5-methylfuran-2-sulfonimidamide], for which the IC50 fell in the range of 40 to 200 nM.
With `CC(C)c1cc(C#N)cc(C(C)C)c1NC(=O)N=S(N)(=O)c1ccc(S(C)(=O)=O)cc1` (single isomer, unassigned) [Example 196, (S)- or (R)-N′-((4-cyano-2,6-diisopropylphenyl)carbamoyl)-4-(methylsulfonyl)-benzenesulfonimidamide], the half-inhibitory concentration (IC50) was in the range of 5000 to 30000 nM.
As to `NS(=O)(=NC(=O)Nc1c2c(c(F)c3c1CCC3)CCC2)c1ccc(O)cc1F` (centres unmarked) [Example 229, 2-Fluoro-N′-(8-fluoro-1,2,3,5,6,7-hexahydro-s-indacen-4-ylcarbamoyl)-4-hydroxybenzenesulfonimidamide], the half-inhibitory concentration (IC50) is 1000 to 5000 nM.
For the molecule `CC(C)(C)OC(=O)NS(=O)(=NC(=O)Nc1c2c(cc3c1CCC3)CCC2)c1cnc(C(C)(C)O)s1` (centres unmarked) [Example 7, Tert-butyl N-(1,2,3,5,6,7-hexahydro-s-indacen-4-ylcarbamoyl)-2-(2-hydroxypropan-2-yl)thiazole-5-sulfonimidoylcarbamate], the half-inhibitory concentration (IC50) fell in the range of 200 to 1000 nM.
On the same count and under the same terms, the figure for `CC(C)(O)c1coc(S(N)(=O)=NC(=O)Nc2c3c(cc4c2CCC4)CCC3)c1` (centres unmarked) [Example 76, N′-(1,2,3,5,6,7-hexahydro-s-indacen-4-ylcarbamoyl)-4-(2-hydroxypropan-2-yl)furan-2-sulfonimidamide] is […]; for `Cc1ccc(-c2c3c(c(NC(=O)N=S(N)(=O)c4ncc(C(C)(C)O)s4)c4c2CCC4)CCC3)cc1C` (centres unmarked) [Example 427, 1-{Amino[5-(2-hydroxypropan-2-yl)-1,3-thiazol-2-yl]oxo-λ^6-sulfanylidene}-3-[8-(3,4-dimethylphenyl)-1,2,3,5,6,7-hexahydro-s-indacen-4-yl]urea] it is 5000 to 30000 nM.
Still for that read-out and setting: next, `CC(C)(O)c1csc(S(N)(=O)=NC(=O)Nc2c3c(cc4c2CCC4)CCC3)c1` (centres unmarked) [Example 74, N′-(1,2,3,5,6,7-hexahydro-s-indacen-4-ylcarbamoyl)-4-(2-hydroxypropan-2-yl)thiophene-2-sulfonimidamide]: […].

The same assay, now with this note: Homo sapiens, THP-1, hTHP-1 assay containing 2% fetal bovine serum; average; given as bound; read-out: hTHP-1 IC50 (Average IC50 of compounds in hTHP-1 assay).
Consider `CC(C)c1cc(F)cc(C(C)C)c1NC(=O)N=S(N)(=O)c1ccccc1-c1ccccc1` (centres unmarked) [Example 212, N′-((4-fluoro-2,6-diisopropylphenyl)carbamoyl)-[1,1′-biphenyl]-2-sulfonimidamide], for which the 50% inhibitory concentration (IC50) was greater than 30000 nM.
Regarding `CC(C)c1cc(F)cc(C(C)C)c1NC(=O)N=S(N)(=O)c1ccc(S(C)(=O)=O)cc1` (single isomer, unassigned) [Example 144, (S)- or (R)-N′-(4-fluoro-2,6-diisopropylphenylcarbamoyl)-4-(methylsulfonyl)-benzenesulfonimidamide], the IC50 is greater than 30000 nM.
Consider `CC(C)c1cc(F)cc(C(C)C)c1NC(=O)N=S(N)(=O)c1cc(Cl)sc1Cl` (centres unmarked) [Example 214, 2,5-dichloro-N′-((4-fluoro-2,6-diisopropylphenyl)carbamoyl)thio-phene-3-sulfonimidamide], for which the 50% inhibitory concentration (IC50) was greater than 30000 nM.
Consider `CCc1ccc2cnn(C)c2c1NC(=O)N=S(N)(=O)c1ncc(C(C)(C)O)s1` (single isomer, unassigned) [Example 327, (S) or (R)-N′-((6-ethyl-1-methyl-1H-indazol-7-yl)carbamoyl)-5-(2-hydroxypropan-2-yl)thiazole-2-sulfonimidamide], for which the IC50 was greater than 30000 nM.
With `CC(=O)N(C)Cc1ccc(S(N)(=O)=NC(=O)Nc2c3c(cc4c2CCC4)CCC3)cc1` (single isomer, unassigned) [Example 365, (S) or (R)-N-(4-(N′-((1,2,3,5,6,7-hexahydro-s-indacen-4-yl)carbamoyl)sulfamid-imidoyl)benzyl)-N-methylacetamide], the IC50 is greater than 30000 nM.
Take `CC(=O)N(C)Cc1cccc(S(N)(=O)=NC(=O)Nc2c3c(cc4c2CCC4)CCC3)c1` (single isomer, unassigned) [Example 367, (S) or (R)-N-(3-(N′-((1,2,3,5,6,7-hexahydro-s-indacen-4-yl)carbamoyl)sulfamid-imidoyl)benzyl)-N-methylacetamide]: the half-maximal inhibitory concentration (IC50) was greater than 30000 nM.

Still in this assay, the particulars now being: hTHP-1 assay containing 2% fetal bovine serum; average; class symbols; read-out: hTHP-1 IC50 (Average IC50 of compounds in hTHP-1 assay).
For the molecule `CC(C)(O)c1ncc(S(N)(=O)=NC(=O)Nc2c3c(cc4c2C(O)CC4)CCC3)s1` (single isomer, unassigned) [Example 392, (R, S) or (R, R) or (S, R) or (S, S)-N′-((3-hydroxy- *1,2,3,5,6,7-hexahydro-s-indacen-4-yl)carbamoyl)-2-(2-hydroxypropan-2-yl)thiazole-5-sulfonimidamide], the IC50 lay in the range of 200 to 1000 nM.

The term IC50 denotes the point on the concentration scale where inhibition reaches its midpoint.
